Inconclusive results are not listed. Calls of active or inactive are those of the source. How the calls were made is not given here.
These compounds were tested on Mycobacterium tuberculosis non-replicating, growth inhibition (assay: growth inhibition of non-replicating M. tuberculosis (AID 488890)).

Compound | IC50
CN1C(c2ccccc2)CC(=NO)CC1c1ccccc1 (stereo not given) | 11.3 µM (inactive)
CC(=O)c1ccc(-n2cc(-c3ccc(C(C)(C)C)cc3)[n+]3c2SCCC3)cc1 | 6.18 µM
COc1ccc(C(=O)N/N=C/c2cccc3cccnc23)cc1 | 6.88 µM
Nc1ccc2c(c1)C(=O)C(=O)c1ccccc1-2 | 2.47 µM
CCc1cc(C=NC2CCCCC2)c(O)s1 | 1.78 µM
Cc1ccc(-c2ccc(/C=N/NC(=O)CN3CCOCC3)o2)cc1[N+](=O)[O-] | 32.2 µM (inactive)
Cc1onc(-c2ccccc2Cl)c1C(=O)O/N=C(\N)c1ccc([N+](=O)[O-])o1 | 4.55 µM
Oc1ccccc1Nc1nc(NCC2CCCO2)c2ccccc2n1 (stereo not given) | 30.7 µM (inactive)
COc1ccc(C(=O)NN/C(C)=C/C(=O)c2ccccc2)cc1 | 1.34 µM
Cc1cc(NCc2ccccn2)n2nc(C)c(-c3ccccc3)c2n1 | 1.82 µM
O=C(Nc1ccc(S(=O)(=O)N2CCOCC2)cc1)c1ccc([N+](=O)[O-])o1 | 5.29 µM
O=C(Nc1nc2ccccc2n1CCN1CCCC1)c1ccc(Cl)cc1 | 12.5 µM (inactive)
COC(=O)COc1ccc(S(=O)(=O)N2CCN(c3ccccc3F)CC2)cc1 | 27.9 µM (inactive)
CCOC(=O)C(=O)Cc1nc2ccccc2s1 | 6.54 µM
O=[N+]([O-])c1cc(-c2nc(-c3ccncc3)no2)cc([N+](=O)[O-])c1 | 1.59 µM
CCOC(=O)COc1ccc(C(=O)Nc2cccc(Cl)c2C)cc1 | 0.23 µM
CCCCNC(=O)Nc1nnc(-c2ccc(OCC)cc2)o1 | 21.9 µM (inactive)
C/C(=N\NC(=O)c1ccco1)c1cc(Cl)sc1Cl | 4.89 µM
CCOc1ccccc1OC(=O)c1cc2ccccc2oc1=O | 21.5 µM (inactive)
CSc1nc2ccc(NC(=O)C3CC(=O)N(Cc4ccccc4)C3)cc2s1 (stereo not given) | 13.6 µM (inactive)
FC(F)(F)c1ccc(-c2nnc(-c3cccnc3)o2)cc1 | 6.48 µM
O=c1oc2ccccc2nc1/C=C(\O)c1ccc(Br)cc1 | 6.03 µM
CN1/C(=C\C=N\NC(=O)c2cccnc2)C(C)(C)c2ccccc21 | 46.5 µM (inactive)

Compound | IC50
CCOC(=O)Cn1cc(C#N)c2ccccc21 | 6.17 µM
Nc1ccc2nc3c(c(Cl)c2c1)CCCC3 | 13.4 µM (inactive)
CC(C)(C)c1ccc(OCCC(=O)OCC(=O)NC2CCCCC2)cc1 | 9.3 µM
CCCc1cc(C(=O)Nc2cccc(C(C)=O)c2)no1 | 10.2 µM (inactive)
CC1CCN(CCc2nc3cc(NC(=O)COc4ccc(Cl)cc4)ccc3n2C)CC1 | 17.4 µM (inactive)
N#CC1=C(N)Oc2n[nH]c(-c3cccnc3)c2C1c1ccc([N+](=O)[O-])o1 (stereo not given) | 5.62 µM
CSc1nnc(Cc2ccc3c(c2)OCO3)o1 | 7.56 µM
Cc1onc(-c2ccccc2)c1C(=O)Nc1nnc(COc2ccc(Cl)cc2)s1 | 8.2 µM
CC1(C)C[C@H]2C=C(C=O)[C@]3(C=O)C[C@]3(C)[C@H]2C1 | 2.94 µM
O=C(Oc1cccc([N+](=O)[O-])c1)c1ccc2c(=O)n3c(nc2c1)CCC3 | 6.82 µM
O=C(N/N=C/c1ccc[nH]1)c1ccc2c(c1)OCO2 | 8.98 µM
CN1CCc2c(sc(NC(=O)c3ccc([N+](=O)[O-])o3)c2C(N)=O)C1 | 8.37 µM
CCOC(=O)CNC(=O)N1c2ccccc2Sc2ccccc21 | 4.81 µM
O=C(N/N=C/c1cccs1)c1cncc(Br)c1 | 4.85 µM
O=C(OCn1nnc2ccccc2c1=O)c1ccc(N2CCOCC2)c([N+](=O)[O-])c1 | 22.8 µM (inactive)
c1ccc(-c2nc(NCCCn3ccnc3)c3ccccc3n2)cc1 | 17.8 µM (inactive)
COc1cccc(F)c1C(C[N+](=O)[O-])c1c(N)n(C)c(=O)n(C)c1=O (stereo not given) | 7.59 µM
COc1cccc2cc(-c3nc4ccccc4o3)c(=O)oc12 | 7.31 µM
O=C(c1ccc(Cl)cc1)N1N=C(c2ccccn2)CC1(O)C(F)(F)F (stereo not given) | 5.51 µM
O=c1c2cc(Cl)ccc2nc(-c2ccc(Cl)c(Cl)c2)n1O | < 0.1 µM
O=C(Oc1ccccc1Cl)c1ccc2c(=O)n3c(nc2c1)CCC3 | 2.28 µM
NC(N)=N/N=C/c1cn(-c2ccccc2)nc1-c1cccs1 | 6.07 µM
Cc1ccccc1OCCNc1cc(N2CC(C)NC(C)C2)ccc1[N+](=O)[O-] (stereo not given) | 10.8 µM (inactive)

Compound | IC50
O=C(N/N=C/c1cccc2cccnc12)c1ccccc1O | 3.16 µM
CCOc1cc(CNCCO)cc(Br)c1OCc1ccccc1Cl | 6.17 µM
O=c1oc(-c2ccccc2[N+](=O)[O-])nc2ccccc12 | 18.9 µM (inactive)
CCOC(=O)COn1c2c(c3c4no[n+]([O-])c4ccc31)CCCC2 | 1.13 µM
C#CCSc1nnc(-c2ccc(O)cc2)o1 | 7.34 µM
O=C(C/C=N\OCc1ccc([N+](=O)[O-])cc1)Nc1ccc(F)cc1F | 9.1 µM
CCn1cc(/C=N\NC(=O)c2ccc(F)cc2)cn1 | 24.3 µM (inactive)
CCCOc1ccc(N2CC(C(=O)Nc3ccccn3)CC2=O)cc1 (stereo not given) | 10.9 µM (inactive)
COc1cccc(NC(=O)c2ccc(-c3ccc([N+](=O)[O-])cc3)o2)c1 | 1.2 µM
O=C(NCC1CCCCC1)c1ccco1 | 2.18 µM
O=C(N/N=C\c1ccc([N+](=O)[O-])s1)c1cncc(Br)c1 | 2.02 µM
CC(C)(C)NCC1(CO)SC(N)=NC1=O (stereo not given) | 15.5 µM (inactive)
O=C(Oc1ccc(/C=N/O)cc1)c1ccccc1Cl | 12.4 µM (inactive)
O=C(NCCCN1CCCC1)c1cc2c(Cl)nc3ccccc3c2s1 | 10.5 µM (inactive)
CCOC(=O)c1ccc(N=CC2=C(O)CC(C)(C)CC2=O)cc1 | 3.85 µM
COc1ccc(C(CCNCc2ccccc2)c2ccc(F)cc2)cc1 (stereo not given) | 8.67 µM
Clc1cccc(OCCN2CCN(CCOc3cccc(Cl)c3)CC2)c1 | 21.7 µM (inactive)
Cc1ccc2c(c1)c1c3n2CCN=C3CCC1 | 15.2 µM (inactive)
Cc1ccc2nc(NC(=O)COC(=O)c3ccc(Br)o3)sc2c1 | 35.8 µM (inactive)
Cn1c(CNc2ccccc2O)nc2ccccc21 | 5.64 µM
CC(C)(C)NCc1cc(Br)ccc1OC1CCCC1 | 8.01 µM
COc1cccc2[nH]c3c(Cl)ncnc3c12 | 17.4 µM (inactive)
Cc1ccc(-n2c(C)cc(C3=NNC(=NC4CC4)SC3)c2C)cc1C | 7.03 µM

Compound | IC50
O=C1NC(=O)N(CCc2ccc(F)cc2)C(=O)/C1=C/C=C/c1ccccc1 | 5.37 µM
Cc1cnc(C(=O)NNC(=O)c2ccc(Br)cc2)cn1 | 4.88 µM
Cc1ccc(C(C)NC(=O)c2cc3ccccc3oc2=O)cc1C (stereo not given) | 3.07 µM
O=C(CCCOc1ccccc1)OCn1nnc2ccccc2c1=O | 24.8 µM (inactive)
Cn1cccc1/C=N/NC(=O)c1ccncc1 | 1.96 µM
N#Cc1cc(N)ccc1-n1cccc1 | 6.15 µM
COC(=O)c1ccc(C(=O)NC2CC(C)(C)Cc3c2cnn3-c2ccc(F)cc2)nc1 (stereo not given) | 15.7 µM (inactive)
CC(C)(C)c1ccc(OCCCC(=O)NC2=NCCS2)cc1 | 9.76 µM
CN(C)CCOc1nc(-c2ccccc2)nc2c1oc1ccccc12 | 14.3 µM (inactive)
COc1ccccc1C(=O)OCC(=O)Nc1ccc(Cl)cn1 | 16.2 µM (inactive)
Cn1c(-c2cccc([N+](=O)[O-])c2)cnc1NCc1cccc(F)c1 | 29.3 µM (inactive)
Nc1nonc1C(=O)N/N=C/c1ccc([N+](=O)[O-])o1 | 5.6 µM
O=C(NC(=S)Nn1cnc2c(cnn2-c2ccccc2)c1=O)c1ccccc1 | 22.2 µM (inactive)
CC(NC(=O)OCc1ccccc1)c1ccccc1 (stereo not given) | 0.82 µM
COC(=O)COc1ccc2c(=O)c(Oc3ccccc3)c(C)oc2c1 | 1.7 µM
Fc1ccc(-c2nnc(-c3ccc(F)cc3)o2)cc1 | 8.38 µM
O=C(COc1ccc(Br)cc1)Nc1ccc([N+](=O)[O-])cn1 | 6.47 µM
O=C(Nc1nnc(-c2ccncc2)o1)c1ccc(Br)s1 | 7.66 µM
O=C(COc1ccc(Cl)cc1)OCC(=O)N1CCCc2ccccc21 | 12.9 µM (inactive)
COC(=O)CCCC(=O)N1CCCC(C(=O)c2ccc(-c3ccccc3)cc2)C1 (stereo not given) | 35.8 µM (inactive)
Oc1c(C(c2ccccc2Cl)N2CCCC2)ccc2cccnc12 (stereo not given) | 4.68 µM
CCC(CC)c1nnc(NC(=O)c2ccc3ccccc3n2)s1 | 4.02 µM
O=C(COC(=O)CC12CC3CC(CC(C3)C1)C2)Nc1cccnc1Cl | 15.2 µM (inactive)

Compound | IC50
O=C1Nc2cc(C(=O)NCCCN3CCOCC3)ccc2S/C1=C/c1cccc(Cl)c1 | 20.8 µM (inactive)
Cc1cccc(CC(=O)NCC2CCCCC2)c1 | 16.7 µM (inactive)
O=C(CN1CCN(c2ccc([N+](=O)[O-])cc2)CC1)Nc1ccccn1 | 30.8 µM (inactive)
O=C(NC(=S)N1CCN(C/C=C/c2ccccc2)CC1)c1ccco1 | 36.1 µM (inactive)
O=c1[nH]c(-c2ccccn2)nc2ccccc12 | 9.66 µM
COc1ccccc1C1=NOC(COC(=O)c2ccc([N+](=O)[O-])cc2)C1 (stereo not given) | 18.8 µM (inactive)
c1ccc(-c2nnc(SCc3nnc(-c4cccs4)o3)o2)cc1 | 5.95 µM
Cc1cccc(C)c1N1C(=O)CC(N2CCSCC2)C1=O (stereo not given) | 3.44 µM
CC1(C)CC(=O)C2=C(C1)OC(N)=C([N+](=O)[O-])C2c1ccc(C#N)s1 (stereo not given) | 11.1 µM (inactive)
Cc1nc(C)c(/C(O)=C/c2nc3ccccc3oc2=O)s1 | 1.07 µM
N#Cc1ccc(CSc2nnc(-c3cccnc3)o2)cc1 | 11.5 µM (inactive)
FC(F)(F)c1nc(SCc2ccc(Cl)cc2Cl)n[nH]1 | 4.69 µM
Clc1ccc(SCCCCn2ccnc2)cc1 | 4.89 µM
CC(C)CN(Cc1c(O)ccc2ccccc12)CC(C)C | 20.4 µM (inactive)
CC1CCc2c(sc3nc(CSc4ncn[nH]4)[nH]c(=O)c23)C1 (stereo not given) | 14.4 µM (inactive)
CC(=O)Oc1c(-c2ccco2)oc2ccccc2c1=O | 10.6 µM (inactive)
CC(C)c1ccc(OCC(=O)NC2=NCCS2)cc1 | 22.2 µM (inactive)
CCOC(=O)COc1cc(N)c(Cl)cc1Cl | 5.21 µM
C/C(=N/NC(=O)c1cccc(C)c1)c1c(O)cc(C)oc1=O | 9.19 µM
COC(=O)C1=C(C(=O)OC)C(c2cc(Cl)ccc2O)c2sc(=O)[nH]c2S1 (stereo not given) | 34.9 µM (inactive)
CC(=O)c1cccc(NC(=O)C2COc3ccccc3O2)c1 (stereo not given) | 24 µM (inactive)
CCOC(=O)Nc1cccc(OCC(=O)Nc2ccccc2OC)c1 | 16.6 µM (inactive)
CCOC(=O)/C=C1\Nc2ccccc2OC1=O | 3 µM

Reference: PubChem BioAssay AID488890 (Southern Research Specialized Biocontainment Screening …, 2010)
